Laboratory results published in publication PMC12195777, “Improved Bioavailability of Stilbenes from Cajanus cajan (L.) Millsp. Leaves Achieved by Hydroxypropyl-β-Cyclodextrin Inclusion: Preparation, Characterization and Pharmacokinetic Assessment” (Molecules, 2025).

Experiments:
[1] = In vivo pharmacokinetic study in rats after oral administration (UPLC-QqQ-MS/MS of plasma); parameters: species or system SD rats; conditions: for AUC(0-inf) / AUC(0-t) / Cmax / Tmax / half-life: male, SD, rat, plasma, n = 6; for relative bioavailability / time at which peak plasma concentration (Cmax) was reached: oral; for relative bioavailability: from the inclusion complex, using CCMLE as a reference; for time at which peak plasma concentration (Cmax) was reached: post-administration (Figure 6)
Procedure: Healthy male SD rats weighing 200 ± 20 g were housed in a specific pathogen-free (SPF) facility under controlled conditions (24 ± 1 °C, 50 ± 10% relative humidity) with a 12 h light/dark cycle. The animals were free to access purified water and a standard laboratory diet for a 1-week acclimatization period. After acclimatization, the rats were randomly divided into three groups (n = 6 per group): the control group (con), CCMLE group and stilbene/HP-β-CD inclusion complex group. The CCMLE group received an oral dose of 232 mg/kg CCMLE, while the stilbene/HP-β-CD inclusion complex group received 2.1 g/kg of the inclusion complex by oral gavage, with both containing the same amount of stilbenes. All animal experiments were performed in accordance with the National Institutes of Health Guide for the Care and Use of Laboratory Animals (NIH Publication No. 85-23, revised in 1996). The study protocol was approved by the Animal Care and Use Committee of Zhejiang University of Technology (approval number MGS20231227194).
Blood samples (approximately 300 μL) were collected via the retro-orbital venous plexus before dosing and at the following post-dose times of 5 min, 15 min, 30 min, 1 h, 1.5 h, 2 h, 4 h, 6 h, 8 h, 12 h and 24 h. Each sample was placed in an EDTA anticoagulation tube to prevent coagulation. The tubes were then centrifuged at 3500 rpm for 10 min. The upper layer of supernatant (plasma) was carefully collected and stored at −80 °C until further analysis.
The plasma samples stored at −80 °C were thawed at room temperature prior to processing. For each analysis, 100 μL of the plasma sample was accurately transferred into a centrifuge tube, followed by the addition of 40 μL of a chloramphenicol (CHL) solution (1 mg/mL) used as an internal standard (IS) and 260 μL methanol. The mixture was vortexed for 3 min to ensure thorough homogenisation and then centrifuged at 13,000 rpm for 10 min at 4 °C to precipitate proteins and other insoluble components. For analysis, 10 μL of the supernatant was injected into a ultra-high-performance liquid chromatography–triple-quadrupole tandem mass spectrometry (UPLC-QqQ-MS/MS) system.
The bioavailabilities of three stilbenes (LLC, CSA and MPA) in CCMLE and the stilbene/HP-β-CD inclusion complex were analyzed using a Waters Xevo TQ-S micro-mass spectrometry system (Waters, Milford, MA, USA) coupled to a Waters H-Class UPLC system. Chromatographic separation was performed on a Waters H-Class UPLC system equipped with a Welch Ultimate® UHPLC LP-C18 column (Waters, Milford, MA, USA, 2.1 × 50 mm, 1.8 μm) at 30 °C. The injection volume was 10 μL. The mobile phase consisted of ultrapure water (A) and acetonitrile (B) with a flow rate of 0.3 mL/min and an elution gradient programme as follows: 0–0.2 min, 90% A; 0.2–1.5 min, 90–5% A; 1.5–3.5 min, 5% A; and 3.5–5 min, 5–90% A.
Mass spectrometric analysis was performed on a Waters Xevo TQ-S micro system using electrospray ionization in the negative mode (ESI^−). The capillary voltage was 2.71 kV, and the ion source temperature was 150 °C. Nitrogen was used as the desolventizing gas and the cone pore gas, and argon was used as the collision gas. Data acquisition was performed in the multiple-reaction-monitoring (MRM) mode for all analytes.
The relative bioavailability of CSA, LLC and MPA in the stilbene/HP-β-CD inclusion complex was calculated using Equation (8), with CCMLE used as a reference:(8) Frel=AUCstilbenes/HP−β−CD/AUCCCMLE·DCCMLE/Dstilbenes/HP−β−CD·100% where AUCstilbenes/HP-β-CD and AUCCCMLE represent the areas under the blood concentration–time curve, and Dstilbenes/HP-β-CD and DCCMLE represent the orally administered dose (mg/kg).
DAS 2.0 software was used to calculate the pharmacokinetic parameters, including the area under the plasma concentration–time curve (AUC), maximum plasma concentration (Cmax), time to reach Cmax (tmax) and elimination half-life (t1/2), using a non-compartmental model. […]

[2] = Tissue distribution study in rats after oral administration; format: in vivo; conditions: oral CCMLE or inclusion complex, heart, liver, spleen, lungs, kidneys, brain
Procedure: The tissue distribution study followed the same experimental grouping and dosing protocols described in Section 3.12. Thirty minutes after dosing, the rats were euthanized and their tissues (including their heart, liver, spleen, lungs, kidneys and brain) were immediately collected. Each tissue was rinsed with a 0.9% NaCl solution, gently dried with filter paper, weighed and stored at −80 °C until analysis.
For sample preparation, 0.2 g of each tissue was homogenized in 0.5 mL of a 0.9% NaCl solution using a high-throughput tissue grinder (Jingxin, Shanghai, China). Next, 300 μL of the tissue homogenate was mixed with 50 μL of a CHL solution and 850 μL of methanol, vortexed for 3 min and centrifuged at 13,000 rpm for 10 min at 4 °C. Then 10 μL of the supernatant was injected into the UPLC-QqQ-MS/MS system for analysis.

[3] = quoted without reference; cited from earlier work
[4] = oral stilbene/HP-β-CD inclusion complex 2.1 g/kg

COc1cc(O)c(C(=O)O)c(/C=C/c2ccccc2)c1 [MPA, 4-O-methylpinosylvic acid] gave an AUC(0-inf) ([1]; oral CCMLE 232 mg/kg) of 580 ± 170 ng·h/mL, an AUC(0-t) ([1]; oral CCMLE 232 mg/kg) of 560 ± 160 ng·h/mL and a Cmax ([1]; oral CCMLE 232 mg/kg) of 230 ± 60 ng/mL. The Tmax ([1]; oral CCMLE 232 mg/kg) was 0.4 ± 0.3 h, the half-life ([1]; oral CCMLE 232 mg/kg) was 5.5 ± 1.7 h and the AUC(0-inf) [1, 4] was 803 ± 140 ng·h/mL. For the same compound, the AUC(0-t) [1, 4] was 740 ± 100 ng·h/mL, the Cmax [1, 4] was 440 ± 130 ng/mL and the Tmax [1, 4] was 0.3 ± 0.1 h. The half-life [1, 4] was 9 ± 4.1 h, the relative bioavailability [1] was 131% and the “time at which peak plasma concentration (Cmax) was reached” value [1] was 15 min. For the same compound, the tissue-specific accumulation [2] was “relatively higher levels in the liver, lungs and kidneys”.
With COc1cc(O)cc(/C=C/c2ccccc2)c1CC=C(C)C [LLC, longistyle C] the AUC(0-inf) ([1]; oral CCMLE 232 mg/kg) was 10 ± 9.3 ng·h/mL, the AUC(0-t) ([1]; oral CCMLE 232 mg/kg) was 5.8 ± 2.9 ng·h/mL and the Cmax ([1]; oral CCMLE 232 mg/kg) was 0.7 ± 0.5 ng/mL. The Tmax ([1]; oral CCMLE 232 mg/kg) was 0.3 ± 0.1 h, the half-life ([1]; oral CCMLE 232 mg/kg) was 14 ± 8.7 h and the AUC(0-inf) [1, 4] was 12 ± 6.7 ng·h/mL. It also gave an AUC(0-t) [1, 4] of 10 ± 6.7 ng·h/mL, a Cmax [1, 4] of 4.5 ± 2 ng/mL and a Tmax [1, 4] of 0.5 h. The half-life [1, 4] was 6 h, the relative bioavailability [1] was 177% and the tissue-specific accumulation [2] was “higher concentrations in the heart and lungs”.
For Oc1ccc(/C=C/c2cc(O)cc(O)c2)cc1 [resveratrol], the “pKa of phenolic hydroxyl groups” value [3] is listed as 9.5–10.
For COc1cc(/C=C/c2ccccc2)c(C(=O)O)c(O)c1CC=C(C)C [CSA, cajaninstilbene acid], the AUC(0-inf) ([1]; oral CCMLE 232 mg/kg) was 170 ± 66 ng·h/mL, the AUC(0-t) ([1]; oral CCMLE 232 mg/kg) was 120 ± 41 ng·h/mL and the Cmax ([1]; oral CCMLE 232 mg/kg) was 48 ng/mL. The Tmax ([1]; oral CCMLE 232 mg/kg) was 0.3 ± 0.1 h, the half-life ([1]; oral CCMLE 232 mg/kg) was 11 ± 5.6 h and the AUC(0-inf) [1, 4] was 470 ± 160 ng·h/mL. For the same compound, the AUC(0-t) [1, 4] was 240 ± 82 ng·h/mL, the Cmax [1, 4] was 140 ± 60 ng/mL and the Tmax [1, 4] was 0.3 ± 0.1 h. For the same compound, the half-life [1, 4] was 13 ± 9.9 h, the relative bioavailability [1] was 198% and the “time at which peak plasma concentration (Cmax) was reached” value [1] was 15 min. The tissue-specific accumulation [2] was “predominately concentrated in the liver”.
